Reference: ChEMBL document CHEMBL5465560, “Selectivity Literature for EUbOPEN Chemogenomic Library” (2024)

Experiments:
[1] = molecular target: T1, Phosphatidylinositol 5-phosphate 4-kinase type-2 beta (Homo sapiens) (UniProt P78356); experiment: Selectivity interaction (KinomeScan (DiscoverX)) EUB0000666a PIP4K2B; details: at 10 µM
T1 sequence (whole entry): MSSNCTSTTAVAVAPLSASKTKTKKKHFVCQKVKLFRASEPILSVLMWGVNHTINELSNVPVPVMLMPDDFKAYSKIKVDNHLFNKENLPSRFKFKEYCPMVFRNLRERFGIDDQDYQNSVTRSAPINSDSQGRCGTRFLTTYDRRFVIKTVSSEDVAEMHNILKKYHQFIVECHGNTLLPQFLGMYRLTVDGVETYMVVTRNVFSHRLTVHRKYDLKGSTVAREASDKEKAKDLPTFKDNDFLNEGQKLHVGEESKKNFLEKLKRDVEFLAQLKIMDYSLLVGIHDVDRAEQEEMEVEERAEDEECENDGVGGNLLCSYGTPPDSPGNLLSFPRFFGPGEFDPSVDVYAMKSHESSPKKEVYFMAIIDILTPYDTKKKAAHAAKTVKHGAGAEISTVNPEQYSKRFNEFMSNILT

[2] = molecular target: T2, Protein kinase C epsilon type (Homo sapiens) (UniProt Q02156); experiment: Selectivity interaction (KinomeScan (DiscoverX)) EUB0000229b PRKCE; details: at 10 µM
T2 sequence (whole entry): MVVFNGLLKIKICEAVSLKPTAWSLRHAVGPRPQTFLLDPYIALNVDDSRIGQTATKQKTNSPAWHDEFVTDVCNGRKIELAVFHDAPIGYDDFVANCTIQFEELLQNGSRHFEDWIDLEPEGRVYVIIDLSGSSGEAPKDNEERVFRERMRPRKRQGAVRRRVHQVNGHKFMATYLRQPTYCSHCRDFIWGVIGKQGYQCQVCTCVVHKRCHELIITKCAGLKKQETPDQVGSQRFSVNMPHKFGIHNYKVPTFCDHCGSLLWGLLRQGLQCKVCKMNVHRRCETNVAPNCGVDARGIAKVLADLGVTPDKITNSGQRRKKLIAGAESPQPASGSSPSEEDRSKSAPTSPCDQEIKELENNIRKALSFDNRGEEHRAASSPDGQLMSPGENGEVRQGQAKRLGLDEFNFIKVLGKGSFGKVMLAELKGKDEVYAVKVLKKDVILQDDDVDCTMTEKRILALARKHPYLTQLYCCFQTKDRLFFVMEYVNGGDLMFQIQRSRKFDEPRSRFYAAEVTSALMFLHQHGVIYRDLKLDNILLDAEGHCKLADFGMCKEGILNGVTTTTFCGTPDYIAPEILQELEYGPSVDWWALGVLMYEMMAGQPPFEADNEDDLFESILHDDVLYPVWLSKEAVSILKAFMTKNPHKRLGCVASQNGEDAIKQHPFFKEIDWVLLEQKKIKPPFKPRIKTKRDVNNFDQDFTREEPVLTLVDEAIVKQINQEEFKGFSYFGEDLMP

[3] = molecular target: Fibroblast growth factor receptor 1 (Homo sapiens, UniProt P11362); experiment: Selectivity interaction (Kinase panel (DSF assay)) EUB0001558a FGFR1
[4] = molecular target: T3, Mitogen-activated protein kinase kinase kinase 6 (Homo sapiens) (UniProt O95382); experiment: Selectivity interaction (KinomeScan (DiscoverX)) EUB0000092b MAP3K6; details: at 10 µM
T3 sequence (whole entry): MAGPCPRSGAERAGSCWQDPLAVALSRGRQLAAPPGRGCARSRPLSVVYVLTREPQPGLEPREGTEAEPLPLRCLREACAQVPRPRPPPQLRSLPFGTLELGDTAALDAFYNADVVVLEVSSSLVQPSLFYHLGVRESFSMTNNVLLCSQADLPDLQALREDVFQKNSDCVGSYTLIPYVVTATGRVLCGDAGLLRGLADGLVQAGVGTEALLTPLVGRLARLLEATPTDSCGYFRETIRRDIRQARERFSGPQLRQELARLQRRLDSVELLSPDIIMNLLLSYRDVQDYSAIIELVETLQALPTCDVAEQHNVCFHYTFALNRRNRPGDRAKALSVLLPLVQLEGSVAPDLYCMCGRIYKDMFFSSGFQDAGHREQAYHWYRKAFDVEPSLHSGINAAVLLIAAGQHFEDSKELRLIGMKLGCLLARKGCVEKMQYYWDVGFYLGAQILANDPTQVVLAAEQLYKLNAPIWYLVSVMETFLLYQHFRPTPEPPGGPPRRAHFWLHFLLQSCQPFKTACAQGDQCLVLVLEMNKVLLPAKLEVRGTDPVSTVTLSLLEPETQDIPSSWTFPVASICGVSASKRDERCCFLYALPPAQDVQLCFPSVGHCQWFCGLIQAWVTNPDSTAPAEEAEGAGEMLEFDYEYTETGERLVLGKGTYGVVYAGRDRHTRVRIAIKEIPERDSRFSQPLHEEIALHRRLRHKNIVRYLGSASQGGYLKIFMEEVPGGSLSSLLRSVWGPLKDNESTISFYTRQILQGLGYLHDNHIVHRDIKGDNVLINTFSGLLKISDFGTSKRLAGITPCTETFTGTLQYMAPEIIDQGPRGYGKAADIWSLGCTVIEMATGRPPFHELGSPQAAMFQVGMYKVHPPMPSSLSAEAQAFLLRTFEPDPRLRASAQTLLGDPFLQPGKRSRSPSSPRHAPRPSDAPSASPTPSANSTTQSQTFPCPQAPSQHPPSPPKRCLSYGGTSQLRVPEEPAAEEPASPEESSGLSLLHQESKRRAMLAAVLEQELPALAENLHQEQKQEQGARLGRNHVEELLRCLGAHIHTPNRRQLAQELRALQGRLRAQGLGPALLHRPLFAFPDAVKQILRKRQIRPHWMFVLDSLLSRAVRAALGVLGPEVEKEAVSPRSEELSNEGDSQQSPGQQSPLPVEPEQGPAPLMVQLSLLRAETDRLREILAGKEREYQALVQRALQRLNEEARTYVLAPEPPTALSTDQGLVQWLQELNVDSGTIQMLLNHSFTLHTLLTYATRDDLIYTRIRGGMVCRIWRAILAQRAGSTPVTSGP

[5] = molecular target: Mitogen-activated protein kinase kinase kinase kinase 1 (Homo sapiens) (UniProt Q92918); experiment: Selectivity interaction (KinomeScan (DiscoverX)) EUB0000045b MAP4K1
[6] = molecular target: Serine/threonine-protein kinase NIM1 (Homo sapiens, UniProt Q8IY84); experiment: Selectivity interaction (KinomeScan (DiscoverX)) EUB0000045b NIM1K
[7] = molecular target: LIM domain kinase 2 (Homo sapiens) (UniProt P53671); experiment: Selectivity interaction (LanthaScreen Eu Kinase Binding Assay) EUB0001632a LIMK2; details: at 10 µM
Sequence of LIM domain kinase 2 (Homo sapiens) (P53671 whole entry, looked up, the tested form may be a part): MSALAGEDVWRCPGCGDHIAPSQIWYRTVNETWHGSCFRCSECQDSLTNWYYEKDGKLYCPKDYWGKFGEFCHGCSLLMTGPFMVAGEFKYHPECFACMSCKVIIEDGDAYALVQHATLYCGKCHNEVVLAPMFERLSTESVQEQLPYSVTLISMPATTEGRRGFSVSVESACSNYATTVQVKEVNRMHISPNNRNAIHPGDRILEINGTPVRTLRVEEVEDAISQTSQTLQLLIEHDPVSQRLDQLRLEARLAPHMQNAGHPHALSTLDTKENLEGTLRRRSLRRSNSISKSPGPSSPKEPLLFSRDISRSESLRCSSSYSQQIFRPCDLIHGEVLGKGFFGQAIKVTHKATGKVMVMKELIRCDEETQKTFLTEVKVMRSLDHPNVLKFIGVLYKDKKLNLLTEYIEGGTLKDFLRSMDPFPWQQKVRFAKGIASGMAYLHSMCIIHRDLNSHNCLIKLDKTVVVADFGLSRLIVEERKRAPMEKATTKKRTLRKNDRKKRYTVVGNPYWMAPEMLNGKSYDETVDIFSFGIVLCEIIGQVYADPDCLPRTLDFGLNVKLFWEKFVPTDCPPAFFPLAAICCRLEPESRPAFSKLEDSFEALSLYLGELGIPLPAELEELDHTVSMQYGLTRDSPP

Sequence of Mitogen-activated protein kinase kinase kinase kinase 1 (Homo sapiens) (Q92918 whole entry, looked up): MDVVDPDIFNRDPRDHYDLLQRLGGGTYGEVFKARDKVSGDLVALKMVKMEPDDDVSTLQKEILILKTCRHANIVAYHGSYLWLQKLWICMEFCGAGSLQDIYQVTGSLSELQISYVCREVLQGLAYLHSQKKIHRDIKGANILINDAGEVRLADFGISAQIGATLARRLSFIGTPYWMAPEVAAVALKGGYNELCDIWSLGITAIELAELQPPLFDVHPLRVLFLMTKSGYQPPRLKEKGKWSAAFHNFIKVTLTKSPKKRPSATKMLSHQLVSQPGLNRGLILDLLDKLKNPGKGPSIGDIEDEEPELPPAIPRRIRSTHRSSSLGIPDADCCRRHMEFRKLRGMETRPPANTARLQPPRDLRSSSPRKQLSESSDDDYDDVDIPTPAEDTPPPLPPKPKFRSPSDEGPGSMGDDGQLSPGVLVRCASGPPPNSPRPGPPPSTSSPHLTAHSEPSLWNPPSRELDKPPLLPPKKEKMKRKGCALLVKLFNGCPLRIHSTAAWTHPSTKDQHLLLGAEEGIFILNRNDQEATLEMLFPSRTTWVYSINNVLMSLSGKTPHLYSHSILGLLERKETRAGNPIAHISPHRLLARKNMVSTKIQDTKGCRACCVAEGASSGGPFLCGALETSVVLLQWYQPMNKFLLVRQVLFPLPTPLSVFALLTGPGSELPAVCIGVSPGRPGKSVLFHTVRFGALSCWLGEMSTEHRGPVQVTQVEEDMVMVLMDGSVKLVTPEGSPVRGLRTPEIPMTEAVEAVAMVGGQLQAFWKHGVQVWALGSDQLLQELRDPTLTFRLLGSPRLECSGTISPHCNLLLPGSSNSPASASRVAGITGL
Sequence of Serine/threonine-protein kinase NIM1 (Q8IY84 whole entry, the tested form may be a part): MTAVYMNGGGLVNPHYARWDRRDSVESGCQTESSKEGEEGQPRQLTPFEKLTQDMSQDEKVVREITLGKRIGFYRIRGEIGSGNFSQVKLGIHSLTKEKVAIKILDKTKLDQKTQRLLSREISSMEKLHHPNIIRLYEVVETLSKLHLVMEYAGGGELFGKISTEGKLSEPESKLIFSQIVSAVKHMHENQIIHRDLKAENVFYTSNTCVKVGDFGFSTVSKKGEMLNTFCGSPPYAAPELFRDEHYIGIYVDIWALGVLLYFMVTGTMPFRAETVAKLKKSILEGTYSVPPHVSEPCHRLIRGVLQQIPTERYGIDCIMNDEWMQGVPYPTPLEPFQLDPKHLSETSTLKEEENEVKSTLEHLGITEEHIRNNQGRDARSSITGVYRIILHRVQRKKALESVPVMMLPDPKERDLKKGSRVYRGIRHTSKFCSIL
Sequence of Fibroblast growth factor receptor 1 (P11362 22-822 limits assumed): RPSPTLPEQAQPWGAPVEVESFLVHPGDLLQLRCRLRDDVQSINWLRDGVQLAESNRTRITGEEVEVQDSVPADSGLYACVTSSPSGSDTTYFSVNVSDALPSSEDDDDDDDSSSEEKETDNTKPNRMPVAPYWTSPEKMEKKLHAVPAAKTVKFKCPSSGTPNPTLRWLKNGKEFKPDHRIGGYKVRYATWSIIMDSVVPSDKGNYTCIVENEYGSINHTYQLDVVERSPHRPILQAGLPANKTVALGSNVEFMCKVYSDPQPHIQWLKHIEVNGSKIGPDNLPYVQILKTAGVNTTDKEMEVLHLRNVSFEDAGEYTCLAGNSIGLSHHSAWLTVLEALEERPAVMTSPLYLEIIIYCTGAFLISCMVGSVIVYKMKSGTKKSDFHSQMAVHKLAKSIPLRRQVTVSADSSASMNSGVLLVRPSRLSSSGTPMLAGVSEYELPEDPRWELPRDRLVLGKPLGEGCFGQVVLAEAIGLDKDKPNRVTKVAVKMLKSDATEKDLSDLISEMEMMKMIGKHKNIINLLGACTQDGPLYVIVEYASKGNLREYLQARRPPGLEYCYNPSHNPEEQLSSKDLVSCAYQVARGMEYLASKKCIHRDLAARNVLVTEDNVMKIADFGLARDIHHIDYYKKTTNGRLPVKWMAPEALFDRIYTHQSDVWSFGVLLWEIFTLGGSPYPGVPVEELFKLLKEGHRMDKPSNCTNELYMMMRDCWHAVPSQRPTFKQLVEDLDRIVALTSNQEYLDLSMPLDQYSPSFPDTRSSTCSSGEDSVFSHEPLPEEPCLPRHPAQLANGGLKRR

**Q.** For `O=C(NOC[C@H](O)CO)c1ccc(F)c(F)c1Nc1ccc(I)cc1F`, which % of control [1] is on record?
**A.** The % of control was 100%.

**Q.** With `COc1cc(N(C)c2ccnc3ccc(C(F)(F)F)cc23)cc(OC)c1OC` as the compound, how does the % binding [2] read?
**A.** The % binding was 55%.

**Q.** With `CC(C)(O)[C@H](F)CN1Cc2cc(NC(=O)c3cnn4cccnc34)c(N3CCOCC3)cc2C1=O` as the compound, how does the dTM [3] read?
**A.** Its dTM is 1.1 K.

**Q.** With `CCC(=O)N1CCN(c2ccc(-n3c(=O)ccc4cnc5ccc(-c6cnc7ccccc7c6)cc5c43)cc2C(F)(F)F)CC1` as the compound, how does the % of control [4] read?
**A.** The % of control was 100%.

**Q.** Which results are given for `C=CC(=O)Nc1cc(-n2c(=O)ccc3cnc4ccc(-c5ccc(NS(C)(=O)=O)cc5)cc4c32)ccc1C`?
**A.** % of control ([5]; at 1 µM): 100%; % of control ([5]; at 10 µM): 94%; % of control ([6]; at 1 µM): 100%; % of control ([6]; at 10 µM): 100%

**Q.** `Cn1cc(-n2cnc3c(NCc4nc5cc(Cl)c(Cl)cc5[nH]4)nc(N4CCOCC4)nc32)cn1` was tested. Which % of inhibition [7] did it give?
**A.** Its % of inhibition is -10.5%.
